Counter-ions that a name gives are not always drawn.

EC50 data for 22 molecules are collected here from patent publication US9809583B2 (priority 2014, dated 2017).

Chain of androgen receptor (hAR) (P10275 whole entry): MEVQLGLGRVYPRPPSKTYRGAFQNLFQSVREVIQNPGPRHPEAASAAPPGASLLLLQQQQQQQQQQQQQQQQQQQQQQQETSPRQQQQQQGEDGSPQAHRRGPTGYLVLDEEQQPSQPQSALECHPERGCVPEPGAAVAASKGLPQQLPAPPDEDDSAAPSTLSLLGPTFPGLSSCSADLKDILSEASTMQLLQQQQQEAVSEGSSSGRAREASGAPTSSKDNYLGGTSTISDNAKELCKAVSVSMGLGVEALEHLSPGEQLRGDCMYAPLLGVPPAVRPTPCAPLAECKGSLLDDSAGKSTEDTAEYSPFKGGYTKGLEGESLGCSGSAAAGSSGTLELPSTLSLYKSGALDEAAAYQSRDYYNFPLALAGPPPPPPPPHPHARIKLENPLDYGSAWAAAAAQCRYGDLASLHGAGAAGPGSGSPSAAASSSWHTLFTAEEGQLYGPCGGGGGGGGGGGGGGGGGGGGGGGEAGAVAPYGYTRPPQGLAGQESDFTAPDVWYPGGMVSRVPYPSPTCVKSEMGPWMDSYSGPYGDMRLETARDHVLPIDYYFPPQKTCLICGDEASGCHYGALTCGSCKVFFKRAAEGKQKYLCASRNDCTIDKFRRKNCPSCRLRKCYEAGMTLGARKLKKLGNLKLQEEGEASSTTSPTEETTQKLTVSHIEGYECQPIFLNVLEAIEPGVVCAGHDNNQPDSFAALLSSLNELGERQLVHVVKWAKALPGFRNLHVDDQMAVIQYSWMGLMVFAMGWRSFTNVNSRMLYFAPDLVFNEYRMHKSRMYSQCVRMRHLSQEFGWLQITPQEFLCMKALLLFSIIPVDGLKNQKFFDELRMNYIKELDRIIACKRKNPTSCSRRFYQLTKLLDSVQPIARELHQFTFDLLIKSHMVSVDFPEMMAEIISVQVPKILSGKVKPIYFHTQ

In the first test the target is androgen receptor (hAR) (Homo sapiens (Human), UniProt P10275). Nature of the test: Test of transcriptional activity (hAR / ARE-Luc dual-luciferase assay in CHO cells). The class given is cell-based. As to conditions: CHO cells with hAR and ARE-Luc, 24 hours; 10 nM DHT = 100%; read-out: EC50 [nM] (mean ± SE). As to the method:
In order to examine the transcriptional activity of the agonists of the present invention, the following in-vitro experiment was performed. CHO (Chinese hamster ovary) cell line (ATCC, #CCL-61) was seeded in a 96-well plate at a density of 1.5×10^4 cells/well, and cultured for 24 hours. Then, a plasmid hAR and plasmid ARE-Luc-mixed medium was added thereto. The transfected cell line was treated with 0.1˜10,000 nM of SARM derivatives, and then allowed to react for 24 hours.
What is called EC50 is the concentration giving half of the maximal effect. For “(2R,5S)-N-(4-acetamidophenyl)-3-(3-methyl-4-nitrophenyl)-2-(trifluoromethyl)oxazolidine-5-carboxamide [Example 112]”, the EC50 stood at 10.1 nM.
Consider `N#Cc1ccc(OC[C@@H]2CN(c3ccc([N+](=O)[O-])c(C(F)(F)F)c3)[C@H](C(F)(F)F)O2)cc1` [Example 81, 4-(((2S,5S)-3-(4-nitro-3-(trifluoromethyl)phenyl)-2-(trifluoromethyl)oxazolidin-5-yl)methoxy)benzonitrile], for which the EC50 was found to be 59.5 nM.
The same measure, in the same setting: under “(2R,5S)-N-(4-cyano-2,5-difluorophenyl)-3-(4-cyano-3-(trifluoromethyl)phenyl)-2-(trifluoromethyl)oxazolidine-5-carboxamide [Example 131]” stands 2.35 nM.

The test is the same for the next values; noted with them: EC50 [nM] (mean ± SE), CHO cells with hAR and ARE-Luc, 24 hours; 10 nM DHT = 100%.
With `N#Cc1ccc(N2C[C@@H](COc3ccc(CO)cc3)O[C@@H]2C(F)(F)F)cc1C(F)(F)F` [Example 67, 4-((2R,5S)-5-((4-(hydroxymethyl)phenoxy)methyl)-2-(trifluoromethyl)oxazolidin-3-yl)-2-(trifluoromethyl)benzonitrile], the EC50 was 3.93 nM.
On to `N#Cc1ccc(N2C[C@@H](C(=O)Nc3ccc(N)cc3Cl)O[C@@H]2C(F)(F)F)cc1C(F)(F)F` [Example 152, (2R,5S)-N-(4-amino-2-chlorophenyl)-3-(4-cyano-3-(trifluoromethyl)phenyl)-2-(trifluoromethyl)oxazolidine-5-carboxamide], for which the EC50 was 521 nM.
In turn, `N#Cc1cccc(NC(=O)[C@@H]2CN(c3ccc(C#N)c(C(F)(F)F)c3)[C@@H](C(F)(F)F)O2)c1` [Example 141, (2R,5S)-3-(4-cyano-3-(trifluoromethyl)phenyl)-N-(3-cyanophenyl)-2-(trifluoromethyl)oxazolidine-5-carboxamide] showed an EC50 of 44.2 nM.
On the same count and under the same terms, under `CC(=O)N1CCC(NC(=O)[C@@H]2CN(c3ccc(C#N)c(C(F)(F)F)c3)[C@@H](C(F)(F)F)O2)CC1` [Example 170, (2R,5S)-N-(1-acetylpiperidin-4-yl)-3-(4-cyano-3-(trifluoromethyl)phenyl)-2-(trifluoromethyl)oxazolidine-5-carboxamide] stands 3560 nM.
Same read-out and setting: under `N#CCC(=O)Nc1ccc(NC(=O)[C@@H]2CN(c3ccc(C#N)c(C(F)(F)F)c3)[C@@H](C(F)(F)F)O2)cc1` [Example 162, (2R,5S)-3-(4-cyano-3-(trifluoromethyl)phenyl)-N-(4-(2-cyanoacetamido)phenyl)-2-(trifluoromethyl)oxazolidine-5-carboxamide] stands 149 nM; under `N#Cc1ccc(NC(=O)[C@@H]2CN(c3ccc(C#N)c(C(F)(F)F)c3)[C@@H](C(F)(F)F)O2)cn1` [Example 108, (2R,5S)-3-(4-cyano-3-(trifluoromethyl)phenyl)-N-(6-cyanopyridin-3-yl)-2-(trifluoromethyl)oxazolidine-5-carboxamide], 17 nM; under `CC(=O)Nc1ccc(NC(=O)[C@@H]2CN(c3ccc(C#N)c(C(F)(F)F)c3)[C@@H](C(F)(F)F)O2)cc1` [Example 109, (2R,5S)-N-(4-acetamidophenyl)-3-(4-cyano-3-(trifluoromethyl)phenyl)-2-(trifluoromethyl)oxazolidine-5-carboxamide], 5.09 nM.
Same read-out and setting: for `CN(C)C(=O)Nc1ccc(OC[C@@H]2CN(c3ccc(C#N)c(C(F)(F)F)c3)[C@@H](C(F)(F)F)O2)cc1` [Example 40, 3-(4-(((2R,5S)-3-(4-cyano-3-(trifluoromethyl)phenyl)-2-(trifluoromethyl)oxazolidin-5-yl)methoxy)phenyl)-1,1-dimethylurea] the value was 438 nM; for `N#Cc1ccc(N2C[C@@H](COc3ccncc3)O[C@H]2C(F)(F)F)cc1C(F)(F)F` [Example 80, 4-((2S,5S)-5-((pyridin-4-yloxy)methyl)-2-(trifluoromethyl)oxazolidin-3-yl)-2-(trifluoromethyl)benzonitrile], 34 nM.
On to `N#Cc1ccc(N2C[C@@H](C(=O)Nc3ccc(O)cc3)O[C@@H]2C(F)(F)F)cc1C(F)(F)F` [Example 148, (2R,5S)-3-(4-cyano-3-(trifluoromethyl)phenyl)-N-(4-hydroxyphenyl)-2-(trifluoromethyl)oxazolidine-5-carboxamide], for which the EC50 was found to be 13.5 nM.
The same measure, in the same setting: for `N#Cc1ccc(N2C[C@@H](C(=O)Nc3ccc([N+](=O)[O-])cc3)O[C@@H]2C(F)(F)F)cc1C(F)(F)F` [Example 155, (2R,5S)-3-(4-cyano-3-(trifluoromethyl)phenyl)-N-(4-nitrophenyl)-2-(trifluoromethyl)oxazolidine-5-carboxamide] the value was 823 nM.
Molecule `N#Cc1ccc(OC[C@@H]2CN(c3ccc(C#N)c(Cl)c3)[C@H](C(F)(F)F)O2)cc1` [Example 83, 2-chloro-4-((2S,5S)-5-((4-cyanophenoxy)methyl)-2-(trifluoromethyl)oxazolidin-3-yl)benzonitrile] gave an EC50 of 29.6 nM.
In turn, `CCc1cc(C#N)ccc1NC(=O)[C@@H]1CN(c2ccc(C#N)c(C(F)(F)F)c2)[C@@H](C(F)(F)F)O1` [Example 145, (2R,5S)-N-(4-cyano-2-ethylphenyl)-3-(4-cyano-3-(trifluoromethyl)phenyl)-2-(trifluoromethyl)oxazolidine-5-carboxamide] displayed an EC50 of 305 nM.
The same measure, in the same setting: under `N#Cc1ccc(N2C[C@@H](C(=O)Nc3ccc(F)c(F)c3)O[C@@H]2C(F)(F)F)cc1C(F)(F)F` [Example 140, (2R,5S)-3-(4-cyano-3-(trifluoromethyl)phenyl)-N-(3,4-difluorophenyl)-2-(trifluoromethyl)oxazolidine-5-carboxamide] stands 14.7 nM; under `N#Cc1ccc(N2C[C@@H](C(=O)Nc3ccc(NC(=O)CN)cc3)O[C@@H]2C(F)(F)F)cc1C(F)(F)F` [Example 163, (2R,5S)-N-(4-(2-aminoacetamido)phenyl)-3-(4-cyano-3-(trifluoromethyl)phenyl)-2-(trifluoromethyl)oxazolidine-5-carboxamide hydrochloride], 214 nM; under `CNC(=O)Nc1ccc(OC[C@@H]2CN(c3ccc(C#N)c(C(F)(F)F)c3)[C@@H](C(F)(F)F)O2)cc1` [Example 16, 1-(4-(((2R,5S)-3-(4-cyano-3-(trifluoromethyl)phenyl)-2-(trifluoromethyl)oxazolidin-5-yl)methoxy)phenyl)-3-methylurea], 21.3 nM.
The same measure, in the same setting: for `N#Cc1ccc(N2C[C@@H](COc3cccnc3)O[C@@H]2C(F)(F)F)cc1C(F)(F)F` [Example 60, 4-((2R,5S)-5-((pyridin-3-yloxy)methyl)-2-(trifluoromethyl)oxazolidin-3-yl)-2-(trifluoromethyl)benzonitrile] the value was 10.4 nM.
Regarding `CCC(=O)Nc1ccc(NC(=O)[C@@H]2CN(c3ccc(C#N)c(C(F)(F)F)c3)[C@@H](C(F)(F)F)O2)cc1` [Example 158, (2R,5S)-3-(4-cyano-3-(trifluoromethyl)phenyl)-N-(4-propionamidophenyl)-2-(trifluoromethyl)oxazolidine-5-carboxamide], the EC50 amounted to 12.5 nM.
On the same count and under the same terms, for `CC(=O)N1CCN(C(=O)[C@@H]2CN(c3ccc(C#N)c(C(F)(F)F)c3)[C@@H](C(F)(F)F)O2)CC1` [Example 172, 4-((2R,5S)-5-(4-acetylpiperazine-1-carbonyl)-2-(trifluoromethyl)oxazolidin-3-yl)-2-(trifluoromethyl)benzonitrile] the value was 699 nM.
